The target in one assay is human LSD1(172-833) (Homo sapiens (Human), UniProt O60341). The assay is described as follows: Measurement of LSD1 inhibitory activity (time-resolved fluorescence, biotin-histone H3 mono methylated K4 peptide). The class given is biochemical. Here is the method:
When the turbidity reached 500 Klett units, the culture temperature was changed to 16° C., IPTG (Isopropyl β-D-1-thiogalactopyranoside) having a final concentration of 0.5 mM was added to induce expression, and the cells were cultured further for 14 hr. The culture medium was centrifuged at 6,000 g for 15 min, and Escherichia coil pellets were recovered.
Using Branson ultrasonic disintegrator, the suspension was disrupted by ultrasonication for 3 min, and centrifuged at 33,000 g for 60 min, and the supernatant was recovered. […] It was concentrated to 10 mL with AmiconUltra (NWCO 30K) (Millipore Japan), and purified with HiLoad 26/60 Superdex 200 pg column (GE Healthcare) equilibrated with Buffer A to give hLSD1 purified product (8.4 mg). The protein concentration of hLSD1 was measured by BCA Protein Assay Kit (Thermo Fisher Scientific K.K.) using bovine serum albumin as the standard.
(5) Measurement of LSD1 Inhibitory Activity
After reaction at room temperature for 5 min, 1 mM 2-PCPA solution was added 5 μL to terminate the reaction. A detection solution ([…] potassium fluoride, 0.1% BSA) containing europium-labeled anti-histone H3 antibody (Wako Pure Chemical Industries, Ltd.) and Streptavidin-XL665 (Cisbio) was further added by 5 μL, and the mixture was left standing for 60 min.

Another assay deals with MAO-B enzyme (Homo sapiens (Human), UniProt P27338). In words: Measurement of MAO-B inhibitory activity (MAO-Glo Assay).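 Note: luminescence read-out, compound preincubated 10 min with enzyme then reacted 60 min at room temperature, inhibition relative to enzyme reaction without compound, blank lacking enzyme and compound.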 The settings on record: read-out: MAO-B IC50 value.
For another assay, the target named is MAO-A enzyme (Homo sapiens (Human), UniProt P21397). In words: Measurement of MAO-A inhibitory activity (MAO-Glo Assay). The class given is biochemical.

These results are taken from patent US9751885B2, “Cyclopropanamine compound and use thereof” (Takeda Pharmaceutical Company Limited, priority 2012, dated 2017).

Where a name gives a salt, the structure may show the parent alone. Where only a bound is given, the exact number is not on record here.

Chain of MAO-A enzyme (P21397 whole entry): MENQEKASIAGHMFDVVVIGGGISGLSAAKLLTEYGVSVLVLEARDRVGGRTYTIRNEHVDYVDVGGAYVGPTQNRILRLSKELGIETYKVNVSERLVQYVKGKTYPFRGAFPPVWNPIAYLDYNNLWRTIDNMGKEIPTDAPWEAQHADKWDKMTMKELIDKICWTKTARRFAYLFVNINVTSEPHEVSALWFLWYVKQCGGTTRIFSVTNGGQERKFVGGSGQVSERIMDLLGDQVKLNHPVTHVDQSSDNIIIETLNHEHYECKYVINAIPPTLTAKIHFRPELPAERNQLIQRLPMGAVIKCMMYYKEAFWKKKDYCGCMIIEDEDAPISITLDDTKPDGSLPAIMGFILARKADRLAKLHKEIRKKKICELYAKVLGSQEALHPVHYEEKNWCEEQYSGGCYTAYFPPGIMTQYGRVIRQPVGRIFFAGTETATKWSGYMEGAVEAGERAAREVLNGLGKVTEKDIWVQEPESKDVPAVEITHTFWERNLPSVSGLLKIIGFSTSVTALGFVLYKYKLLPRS
Chain of MAO-B enzyme (P27338 whole entry): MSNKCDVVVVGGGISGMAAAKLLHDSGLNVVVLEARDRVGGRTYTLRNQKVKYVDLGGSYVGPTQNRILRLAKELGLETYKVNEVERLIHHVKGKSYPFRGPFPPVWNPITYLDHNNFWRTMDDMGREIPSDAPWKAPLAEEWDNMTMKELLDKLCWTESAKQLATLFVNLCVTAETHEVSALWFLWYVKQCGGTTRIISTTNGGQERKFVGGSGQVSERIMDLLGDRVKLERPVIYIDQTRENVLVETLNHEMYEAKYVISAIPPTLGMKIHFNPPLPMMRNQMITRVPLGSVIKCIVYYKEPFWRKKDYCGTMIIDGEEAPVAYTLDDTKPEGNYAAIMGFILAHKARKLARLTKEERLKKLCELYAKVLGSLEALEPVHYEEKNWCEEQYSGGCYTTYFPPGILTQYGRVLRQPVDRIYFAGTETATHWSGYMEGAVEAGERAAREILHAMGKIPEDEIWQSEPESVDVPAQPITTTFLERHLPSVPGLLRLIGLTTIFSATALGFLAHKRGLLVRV
Procedure for MAO-A enzyme: The MAO-A inhibitory activity evaluation described below followed the protocol of MAO-Glo (registered trademark) Assay of Promega KK.
A test compound dissolved in 4% DMSO was added by 12.5 μL to 25 μL reaction solution (100 mM HEPES (pH 7.5), 5% glycerol) containing 400 ng of MAO-A enzyme (Sigma-Aldrich Co. LLC.), and the mixture was reacted at room temperature for 10 min. […] After reaction at room temperature for 60 min, Luciferine detection reagent (Promega KK) (50 μL) was added to terminate the reaction. After reaction at room temperature for min with stirring, the luminescence was measured by Envision (PerkinElmer). The MAO-A inhibitory rate (%) of the test compound was calculated by the following formula. inhibitory rate(%)=(1−(test compound count−blank)÷(control−blank))×100
The count of the MAO-A enzyme reaction mixture under compound non-addition conditions is indicated as control, and the count under compound non-addition and MAO-A enzyme non-addition conditions is indicated as blank.

In general, IC50 refers to the point on the concentration scale where inhibition reaches its midpoint. `Cc1ncc(NC(=O)c2cccc([C@@H]3C[C@H]3NC3CCC(F)(F)CC3)c2)s1` (relative stereo) [Example 211, 3-(trans-2-((4,4-difluorocyclohexyl)amino)cyclopropyl)-N-(2-methyl-1,3-thiazol-5-yl)benzamide dihydrochloride]: the IC50 on human LSD1(172-833) was under 0.1 µM; on MAO-B enzyme, over 10 µM; against MAO-A enzyme it was over 10 µM.

For `N[C@@H]1C[C@H]1c1ccc(C(=O)Nc2ccc(-c3ncccn3)cc2)cc1` (relative stereo) [Example 50, 4-(trans-2-aminocyclopropyl)-N-(4-(pyrimidin-2-yl)phenyl)benzamide dihydrochloride], the results for the concentration for half-maximal inhibition (IC50) on human LSD1(172-833), at MAO-B enzyme and on MAO-A enzyme were under 0.1 µM, over 10 µM and 0.2 µM, respectively.

Consider `O=C(NCc1ccccn1)c1ccc([C@@H]2C[C@H]2NCC2CC2)cc1` (relative stereo) [Example 16, 4-(trans-2-((cyclopropylmethyl)amino)cyclopropyl)-N-(pyridin-2-ylmethyl)benzamide bis(trifluoroacetate)], for which the IC50 was under 0.1 µM against human LSD1(172-833), over 10 µM at MAO-B enzyme and over 10 µM at MAO-A enzyme.

Consider `CC(C)(C)CN[C@@H]1C[C@H]1c1cccc(C(=O)NC2CC(F)(F)C2)c1` (relative stereo) [Example 154, N-(3,3-difluorocyclobutyl)-3-(trans-2-((2,2-dimethylpropyl)amino)cyclopropyl)benzamide hydrochloride], for which the results for the IC50 against human LSD1(172-833), at MAO-B enzyme and at MAO-A enzyme were under 0.1 µM, over 10 µM and over 10 µM, respectively.

`O=C(Nc1cccc(-c2ncccn2)c1)c1cccc([C@@H]2C[C@H]2NCC2CC2)c1` (relative stereo) [Example 81, 3-(trans-2-((cyclopropylmethyl)amino)cyclopropyl)-N-(3-(pyrimidin-2-yl)phenyl)benzamide dihydrochloride]: the results for the IC50 against human LSD1(172-833), at MAO-B enzyme and against MAO-A enzyme were under 0.1 µM, over 10 µM and 5.2 µM, respectively.

With `O=C(Nc1ccc(OC(F)(F)F)cc1)c1cccc([C@@H]2C[C@H]2NCC2CC2)c1` (relative stereo) [Example 123, 3-(trans-2-((cyclopropylmethyl)amino)cyclopropyl)-N-(4-(trifluoromethoxy)phenyl)benzamide trifluoroacetate], the values for the half-inhibitory concentration (IC50) against human LSD1(172-833), at MAO-B enzyme and against MAO-A enzyme were under 0.1 µM, over 10 µM and over 10 µM, respectively.

As for `O=C(NCc1ccc(N2CCOCC2)cc1)c1ccc([C@@H]2C[C@H]2NCC2CC2)cc1` (relative stereo) [Example 28, 4-(trans-2-((cyclopropylmethyl)amino)cyclopropyl)-N-(4-(morpholin-4-yl)benzyl)benzamide bis(trifluoroacetate)], the concentration for half-maximal inhibition (IC50) against human LSD1(172-833) was under 0.1 µM; at MAO-B enzyme, over 10 µM; at MAO-A enzyme, over 10 µM.

Take `CN(C(=O)c1cccc([C@@H]2C[C@H]2NCC2CC2)c1)c1ccccc1` (relative stereo) [Example 80, 3-(trans-2-((cyclopropylmethyl)amino)cyclopropyl)-N-methyl-N-phenylbenzamide hydrochloride]: the 50% inhibitory concentration (IC50) was under 0.1 µM on human LSD1(172-833), over 10 µM on MAO-B enzyme and 0.9 µM against MAO-A enzyme.

Regarding `CN1CCC(N[C@@H]2C[C@H]2c2cccc(C(=O)Nc3cnn(CC4CC4)c3)c2)CC1` (relative stereo) [Example 202, N-(1-(cyclopropylmethyl)-1H-pyrazol-4-yl)-3-(trans-2-((1-methylpiperidin-4-yl)amino)cyclopropyl)benzamide trihydrochloride], the half-inhibitory concentration (IC50) against human LSD1(172-833) was under 0.1 µM; on MAO-B enzyme it was over 10 µM; on MAO-A enzyme it was over 10 µM.

On to `O=C(NCc1ccccc1)c1ccc([C@@H]2C[C@H]2NCc2ccccc2F)cc1` (relative stereo) [Example 39, N-benzyl-4-(trans-2-((2-fluorobenzyl)amino)cyclopropyl)benzamide trifluoroacetate], for which the IC50 was under 0.1 µM against human LSD1(172-833), over 10 µM at MAO-B enzyme and 6.6 µM on MAO-A enzyme.

Consider `Cc1ccc(CN[C@@H]2C[C@H]2c2ccc(C(=O)NCc3ccccc3)cc2)cc1` (relative stereo) [Example 34, N-benzyl-4-(trans-2-((4-methylbenzyl)amino)cyclopropyl)benzamide trifluoroacetate], for which the IC50 on human LSD1(172-833) was under 0.1 µM; at MAO-B enzyme, over 10 µM; against MAO-A enzyme, 4.4 µM.

On to `O=C(Nc1ccc(-c2cn3c(n2)SCC3)cc1)c1cccc([C@@H]2C[C@H]2NCC2CC2)c1` (relative stereo) [Example 127, 3-(trans-2-((cyclopropylmethyl)amino)cyclopropyl)-N-(4-(2,3-dihydroimidazo[2,1-b][1,3]thiazol-6-yl)phenyl)benzamide bis(trifluoroacetate)], for which the concentration for half-maximal inhibition (IC50) at human LSD1(172-833) is under 0.1 µM; on MAO-B enzyme it was over 10 µM; on MAO-A enzyme, over 10 µM.

Turning to `Cc1nnc(NC(=O)c2cccc([C@@H]3C[C@H]3NCC(C)(C)C)c2)s1` (relative stereo) [Example 158, 3-(trans-2-((2,2-dimethylpropyl)amino)cyclopropyl)-N-(5-methyl-1,3,4-thiadiazol-2-yl)benzamide dihydrochloride], the half-maximal inhibitory concentration (IC50) against human LSD1(172-833) was under 0.1 µM; on MAO-B enzyme it was over 10 µM; at MAO-A enzyme, over 10 µM.

For the compound `Cc1ccsc1CN[C@@H]1C[C@H]1c1ccc(C(=O)NCc2ccccc2)cc1` (relative stereo) [Example 47, N-benzyl-4-(trans-2-(((3-methyl-2-thienyl)methyl)amino)cyclopropyl)benzamide trifluoroacetate], the half-inhibitory concentration (IC50) against human LSD1(172-833) was under 0.1 µM; on MAO-B enzyme, over 10 µM; against MAO-A enzyme, 5 µM.

For `O=C(NC1CCCC1)c1cccc([C@@H]2C[C@H]2NCC2CCOCC2)c1` (relative stereo) [Example 83, N-cyclopentyl-3-(trans-2-((tetrahydro-2H-pyran-4-ylmethyl)amino)cyclopropyl)benzamide hydrochloride], the results for the IC50 against human LSD1(172-833), at MAO-B enzyme and against MAO-A enzyme were under 0.1 µM, over 10 µM and over 10 µM, respectively.

For the compound `O=C(NCCc1ccccn1)c1ccc([C@@H]2C[C@H]2NCC2CC2)cc1` (relative stereo) [Example 19, 4-(trans-2-((cyclopropylmethyl)amino)cyclopropyl)-N-(2-(pyridin-2-yl)ethyl)benzamide bis(trifluoroacetate)], the IC50 against human LSD1(172-833) was under 0.1 µM; at MAO-B enzyme, over 10 µM; against MAO-A enzyme it was over 10 µM.

As for `O=C(NCCc1ccccc1)c1cccc([C@@H]2C[C@H]2NCC2CC2)c1` (relative stereo) [Example 120, 3-(trans-2-((cyclopropylmethyl)amino)cyclopropyl)-N-(2-phenylethyl) benzamide trifluoroacetate], the 50% inhibitory concentration (IC50) on human LSD1(172-833) is under 0.1 µM; on MAO-B enzyme, over 10 µM; against MAO-A enzyme, 9.6 µM.

Consider `Cn1cc(NC(=O)c2ccc([C@@H]3C[C@H]3N)cc2)cn1` (relative stereo) [Example 51, 4-(trans-2-aminocyclopropyl)-N-(1-methyl-1H-pyrazol-4-yl)benzamide dihydrochloride], for which the concentration for half-maximal inhibition (IC50) is under 0.1 µM against human LSD1(172-833), over 10 µM at MAO-B enzyme and 0.83 µM against MAO-A enzyme.

For `O=C(Nc1ccc(-c2ncccn2)cc1)c1ccc([C@@H]2C[C@H]2NCC2CC2)cc1` (relative stereo) [Example 52, 4-(trans-2-((cyclopropylmethyl)amino)cyclopropyl)-N-(4-(pyrimidin-2-yl)phenyl)benzamide dihydrochloride], the IC50 against human LSD1(172-833) is under 0.1 µM; on MAO-B enzyme, over 10 µM; at MAO-A enzyme it was over 10 µM.

In the case of `O=C(Nc1cnn(-c2ccc(F)cc2)c1)c1cccc([C@@H]2C[C@H]2NC2CCOCC2)c1` (relative stereo) [Example 196, N-(1-(4-fluorophenyl)-1H-pyrazol-4-yl)-3-(trans-2-(tetrahydro-2H-pyran-4-ylamino)cyclopropyl)benzamide dihydrochloride], the IC50 at human LSD1(172-833) is under 0.1 µM; on MAO-B enzyme it was over 10 µM; against MAO-A enzyme, over 10 µM.

As to `N#Cc1cccc(CN[C@@H]2C[C@H]2c2ccc(C(=O)NCc3ccccc3)cc2)c1` (relative stereo) [Example 43, N-benzyl-4-(trans-2-((3-cyanobenzyl)amino)cyclopropyl)benzamide trifluoroacetate], the IC50 was under 0.1 µM against human LSD1(172-833), over 10 µM at MAO-B enzyme and 1.5 µM against MAO-A enzyme.

Take `COc1ccccc1CN[C@@H]1C[C@H]1c1ccc(C(=O)NCc2ccccc2)cc1` (relative stereo) [Example 32, N-benzyl-4-(trans-2-((2-methoxybenzyl)amino)cyclopropyl)benzamide trifluoroacetate]: the 50% inhibitory concentration (IC50) on human LSD1(172-833) was under 0.1 µM; at MAO-B enzyme, over 10 µM; against MAO-A enzyme, over 10 µM.

On to `O=C(Nc1ccc2ncsc2c1)c1cccc([C@@H]2C[C@H]2NCC2CC2)c1` (relative stereo) [Example 144, N-(1,3-benzothiazol-6-yl)-3-(trans-2-((cyclopropylmethyl)amino)cyclopropyl)benzamide trifluoroacetate], for which the 50% inhibitory concentration (IC50) against human LSD1(172-833) was under 0.1 µM; at MAO-B enzyme it was over 10 µM; against MAO-A enzyme, over 10 µM.
